Measurements reported in patent publication US10273230B2, “Substituted phenyl alkanoic acid compounds as GPR120 agonists and uses thereof” (Piramal Enterprises Limited, priority 2014, dated 2019).

biological target: GPR120 receptor (Homo sapiens (Human), UniProt Q5NUL3); assay: Beta (β) arrestin 2 Interaction Assay (BRET assay), β-galactosidase enzyme fragment complementation; format: cell-based; conditions: CHO-K1 cells stably expressing the GPR120 receptor; β-arrestin recruitment; 2 hours incubation; 30 μM to 1 nM
Experimental: Beta (β) arrestin 2 Interaction Assay (BRET assay) was performed using CHO-K1 cells stably expressing the GPR120 receptor using β-galactosidase (Beta gal) enzyme fragment complementation assay. The measurement of GPR120 activation upon agonist activation was directly provided by β-arrestin recruitment. One day before the β-arrestin 2 assay, CHO-K1 cells were seeded and incubated overnight at 37° C. in a 5% CO2 humidified atmosphere. Cells were treated with the test compounds in the various concentrations ranging from 30 μM to 1 nM and incubated for 2 hours for GPCR (GPR120) activation. Extent of Arrestin recruitment was measured by adding detection reagents for Beta gal complementation assay and was further incubated for 1 hour. The chemi-luminescent signal was detected on Polar Star (BMG Labtech). The dose-response curve was analyzed using Sigma Plot/Graph Pad. The EC50 (concentration of the test compounds where 50% of compounds' maximal activity is observed) values were calculated from the dose-response curve.

GPR120 receptor, sequence (Q5NUL3 whole entry, the tested form may be a part): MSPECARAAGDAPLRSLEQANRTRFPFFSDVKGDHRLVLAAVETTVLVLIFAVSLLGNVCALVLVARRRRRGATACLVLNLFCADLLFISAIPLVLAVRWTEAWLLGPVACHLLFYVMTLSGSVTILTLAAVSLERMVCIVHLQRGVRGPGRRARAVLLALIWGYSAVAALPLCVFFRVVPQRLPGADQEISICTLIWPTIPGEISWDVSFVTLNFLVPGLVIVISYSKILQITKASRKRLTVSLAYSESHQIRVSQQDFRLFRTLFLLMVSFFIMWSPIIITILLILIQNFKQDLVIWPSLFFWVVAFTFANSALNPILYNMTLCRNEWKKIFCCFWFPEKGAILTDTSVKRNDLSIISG
GPR120 receptor, sequence (P32121 whole entry partner, the tested form may be a part): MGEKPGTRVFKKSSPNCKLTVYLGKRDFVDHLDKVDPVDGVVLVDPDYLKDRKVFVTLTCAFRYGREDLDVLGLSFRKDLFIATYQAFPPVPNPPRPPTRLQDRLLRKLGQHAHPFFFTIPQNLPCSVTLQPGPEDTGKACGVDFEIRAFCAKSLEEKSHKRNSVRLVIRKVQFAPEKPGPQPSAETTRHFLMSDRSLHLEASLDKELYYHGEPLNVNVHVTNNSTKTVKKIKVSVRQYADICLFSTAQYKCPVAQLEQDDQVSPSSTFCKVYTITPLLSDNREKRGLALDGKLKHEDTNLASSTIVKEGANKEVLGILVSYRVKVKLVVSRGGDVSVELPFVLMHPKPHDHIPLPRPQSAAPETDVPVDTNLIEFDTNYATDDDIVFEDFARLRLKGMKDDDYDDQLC

| EC50 [nM] | SMILES |
| --- | --- |
| 500 to 5000 | N#CC1(c2ccc(C3=C(COc4ccc(CCCC(=O)O)cc4)CCCC3)cc2)CC1 [Example 1, 4-(4-((4′-(1-cyanocyclopropyl)-3,4,5,6-tetrahydro-[1,1′-biphenyl]-2-yl)methoxy)phenyl) butanoic Acid] |
| 500 to 5000 | O=C(O)CCCc1ccc(OCC2=C(c3nc4c(s3)CCCC4)CCCC2)cc1 [Example 4, 4-(4-((2-(4,5,6,7-tetrahydrobenzo[d]thiazol-2-yl)cyclohex-1-en-1-yl)methoxy)phenyl) butanoic Acid] |
| 500 to 5000 | COc1ccc(C2=C(COc3ccc(CCCC(=O)O)cc3)CCCC2)cc1 [Example 6, 4-(4-((4′-methoxy-3,4,5,6-tetrahydro-[1,1′-biphenyl]-2-yl)methoxy)phenyl)butanoic Acid] |
| 50 to 500 | O=C(O)CCCc1ccc(OCC2=C(c3ccc(C4CC4)cc3)CCCC2)cc1 [Example 7, 4-(4-((4′-cyclopropyl-3,4,5,6-tetrahydro-[1,1′-biphenyl]-2-yl)methoxy)phenyl)butanoic Acid] |
| 500 to 5000 | Nc1ncc(C2=C(COc3ccc(CCCC(=O)O)cc3)CCCC2)cc1C(F)(F)F [Example 8, 4-(4-((2-(6-amino-5-(trifluoromethyl)pyridin-3-yl)cyclohex-1-en-1-yl)methoxy)phenyl)butanoic Acid] |
| 50 to 500 | O=C(O)CCCc1ccc(OCC2=C(c3ccc4c(c3)CCCC4)CCCC2)cc1 [Example 9, 4-(4-((2-(5,6,7,8-tetrahydronaphthalen-2-yl)cyclohex-1-en-1-yl)methoxy)phenyl) butanoic Acid] |
| 500 to 5000 | O=C(O)CCCc1ccc(OCC2=C(C3=CCCCC3)CCCC2)cc1 [Example 10, 4-(4-([1,1′-bi(cyclohexane)]-1,1′-dien-2-ylmethoxy)phenyl) butanoic Acid] |
| 500 to 5000 | COc1ccc(C2=C(COc3ccc(CCCC(=O)O)cc3)CCCC2)cn1 [Example 14, 4-(4-((2-(6-methoxypyridin-3-yl)cyclohex-1-en-1-yl)methoxy)phenyl) butanoic Acid] |
| 50 to 500 | Cc1ccc(C2=C(COc3ccc(CCCC(=O)O)cc3)CCCC2)cc1 [Example 15, 4-(4-((4′-methyl-3,4,5,6-tetrahydro-[1,1′-biphenyl]-2-yl)methoxy)phenyl) butanoic Acid] |
| 500 to 5000 | N#CC1(c2ccc(C3=C(COc4ccc(CCCC(=O)O)cc4)CCCCC3)cc2)CC1 [Example 21, 4-(4-((2-(4-(1-cyanocyclopropyl)phenyl)cyclohept-1-en-1-yl)methoxy)phenyl) butanoic Acid] |
| 50 to 500 | Cc1ccc(C2=C(COc3ccc(CCCC(=O)O)cc3)CCCCC2)cc1 [Example 22, 4-(4-((2-(p-tolyl)cyclohept-1-en-1-yl)methoxy)phenyl)butanoic Acid] |
| 500 to 5000 | N#CC1(c2ccc(C3=C(COc4ccc(CCCC(=O)O)cc4)COCC3)cc2)CC1 [Example 48, 4-(4-((4-(4-(1-cyanocyclopropyl)phenyl)-5,6-dihydro-2H-pyran-3-yl)methoxy)phenyl) butanoic Acid] |
| 500 to 5000 | O=C(O)CCCc1ccc(OCC2=C(c3ccc4c(c3)CCCC4)CCOC2)cc1 [Example 49, 4-(4-((4-(5,6,7,8-tetrahydronaphthalen-2-yl)-5,6-dihydro-2H-pyran-3-yl)methoxy)phenyl) butanoic Acid] |
| 500 to 5000 | Cc1ccc(OC2=C(COc3ccc(CCCC(=O)O)cc3)CCCC2)cc1 [Example 50, 4-(4-((2-(p-tolyloxy)cyclohex-1-en-1-yl)methoxy)phenyl)butanoic Acid] |
| 500 to 5000 | CC1CCC(c2ccc(C3(C#N)CC3)cc2)=C(COc2ccc(CCCC(=O)O)cc2)C1 (stereo not shown) [Example 53, 4-(4-((4′-(1-cyanocyclopropyl)-4-methyl-3,4,5,6-tetrahydro-[1,1′-biphenyl]-2-yl)methoxy)phenyl)butanoic Acid] |
| 500 to 5000 | Cc1ccc(C2=C(COc3ccc(CCCC(=O)O)cc3)CC(F)CC2)cc1 (stereo not shown) [Example 54, 4-(4-((4-fluoro-4′-methyl-3,4,5,6-tetrahydro-[1,1′-biphenyl]-2-yl)methoxy)phenyl) butanoic Acid] |
